T1: PhyB 1–450 fragment (Arabidopsis thaliana, UniProt P14713)
T1 construct: NTE-PAS-GAF, residues 1-450; N-terminal 6His-TEV tag cut off; E. coli BL21(DE3)
T1 sequence (P14713 1-450): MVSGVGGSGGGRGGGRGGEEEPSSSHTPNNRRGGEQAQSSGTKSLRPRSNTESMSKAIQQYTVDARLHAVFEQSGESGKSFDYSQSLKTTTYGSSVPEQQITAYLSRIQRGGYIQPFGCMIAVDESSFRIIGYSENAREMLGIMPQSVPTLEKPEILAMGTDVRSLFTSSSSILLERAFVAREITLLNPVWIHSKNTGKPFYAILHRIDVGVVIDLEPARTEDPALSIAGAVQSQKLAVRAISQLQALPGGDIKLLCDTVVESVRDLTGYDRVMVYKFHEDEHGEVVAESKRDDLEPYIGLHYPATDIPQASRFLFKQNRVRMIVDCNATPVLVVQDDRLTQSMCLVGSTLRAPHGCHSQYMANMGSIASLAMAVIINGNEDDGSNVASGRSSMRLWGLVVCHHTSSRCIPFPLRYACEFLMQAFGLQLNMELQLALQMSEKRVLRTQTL

T2: full-length (FL) PhyB (Arabidopsis thaliana, UniProt P14713)
T2 construct: full length, 1172 residues; N-terminal 6His-TEV tag cut off; intron-less gene; E. coli BL21(DE3); homodimer, 320 kDa by SEC
T2 sequence (P14713 1-1172): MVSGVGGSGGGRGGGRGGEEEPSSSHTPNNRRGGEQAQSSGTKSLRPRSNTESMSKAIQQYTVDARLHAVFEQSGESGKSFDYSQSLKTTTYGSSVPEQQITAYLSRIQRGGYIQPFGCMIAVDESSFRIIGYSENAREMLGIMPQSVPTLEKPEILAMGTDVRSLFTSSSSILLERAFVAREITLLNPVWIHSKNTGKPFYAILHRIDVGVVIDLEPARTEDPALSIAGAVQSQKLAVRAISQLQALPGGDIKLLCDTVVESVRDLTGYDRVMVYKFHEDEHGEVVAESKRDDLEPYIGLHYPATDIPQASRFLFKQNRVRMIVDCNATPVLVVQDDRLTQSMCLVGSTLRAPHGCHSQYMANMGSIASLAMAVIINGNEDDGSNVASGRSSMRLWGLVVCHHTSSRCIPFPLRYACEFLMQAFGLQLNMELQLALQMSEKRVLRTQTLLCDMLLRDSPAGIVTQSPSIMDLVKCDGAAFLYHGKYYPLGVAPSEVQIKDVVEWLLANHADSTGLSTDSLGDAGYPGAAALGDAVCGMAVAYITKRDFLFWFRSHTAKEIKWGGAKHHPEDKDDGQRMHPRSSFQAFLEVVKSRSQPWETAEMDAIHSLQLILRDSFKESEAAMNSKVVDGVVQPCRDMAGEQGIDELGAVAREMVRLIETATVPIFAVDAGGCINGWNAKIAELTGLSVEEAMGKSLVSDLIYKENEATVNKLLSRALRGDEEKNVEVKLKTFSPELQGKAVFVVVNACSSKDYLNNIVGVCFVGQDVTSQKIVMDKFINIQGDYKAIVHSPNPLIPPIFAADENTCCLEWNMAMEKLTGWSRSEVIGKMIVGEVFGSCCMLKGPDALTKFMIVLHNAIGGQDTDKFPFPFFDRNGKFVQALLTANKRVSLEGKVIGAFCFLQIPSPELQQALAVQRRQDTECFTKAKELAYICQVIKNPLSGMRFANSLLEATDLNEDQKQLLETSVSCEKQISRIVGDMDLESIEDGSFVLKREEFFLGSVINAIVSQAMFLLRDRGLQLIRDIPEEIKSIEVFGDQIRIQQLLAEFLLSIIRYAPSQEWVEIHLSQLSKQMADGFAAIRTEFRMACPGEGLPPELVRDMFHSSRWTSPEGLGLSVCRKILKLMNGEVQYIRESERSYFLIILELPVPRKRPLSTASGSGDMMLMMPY

T3: PhyB 1–624 fragment (PSM) (Arabidopsis thaliana, UniProt P14713)
T3 construct: photosensory module (NTE-PAS-GAF-PHY), residues 1-624; N-terminal 6His-TEV tag cut off; E. coli BL21(DE3)
T3 sequence (P14713 1-624): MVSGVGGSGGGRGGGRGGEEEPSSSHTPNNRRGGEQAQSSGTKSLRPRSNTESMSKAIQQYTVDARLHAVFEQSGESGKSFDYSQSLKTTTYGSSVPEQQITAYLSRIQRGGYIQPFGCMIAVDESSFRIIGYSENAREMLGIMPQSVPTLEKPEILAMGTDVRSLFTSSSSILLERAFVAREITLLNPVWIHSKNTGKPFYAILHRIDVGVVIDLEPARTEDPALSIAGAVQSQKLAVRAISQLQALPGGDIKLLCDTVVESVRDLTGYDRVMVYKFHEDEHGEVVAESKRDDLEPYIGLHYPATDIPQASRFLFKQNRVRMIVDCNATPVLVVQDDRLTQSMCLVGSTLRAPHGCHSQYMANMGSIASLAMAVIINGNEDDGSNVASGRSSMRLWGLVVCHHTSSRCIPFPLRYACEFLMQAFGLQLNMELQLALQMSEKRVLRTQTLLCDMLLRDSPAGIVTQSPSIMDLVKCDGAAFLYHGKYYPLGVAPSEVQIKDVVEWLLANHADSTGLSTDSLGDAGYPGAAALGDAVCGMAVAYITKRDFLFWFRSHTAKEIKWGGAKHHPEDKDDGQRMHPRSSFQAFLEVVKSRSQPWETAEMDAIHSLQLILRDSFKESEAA

T4: PhyB 1–908 fragment (Arabidopsis thaliana, UniProt P14713)
T4 construct: residues 1-908 (HKRD removed); N-terminal 6His-TEV tag cut off; E. coli BL21(DE3)
T4 sequence (P14713 1-908): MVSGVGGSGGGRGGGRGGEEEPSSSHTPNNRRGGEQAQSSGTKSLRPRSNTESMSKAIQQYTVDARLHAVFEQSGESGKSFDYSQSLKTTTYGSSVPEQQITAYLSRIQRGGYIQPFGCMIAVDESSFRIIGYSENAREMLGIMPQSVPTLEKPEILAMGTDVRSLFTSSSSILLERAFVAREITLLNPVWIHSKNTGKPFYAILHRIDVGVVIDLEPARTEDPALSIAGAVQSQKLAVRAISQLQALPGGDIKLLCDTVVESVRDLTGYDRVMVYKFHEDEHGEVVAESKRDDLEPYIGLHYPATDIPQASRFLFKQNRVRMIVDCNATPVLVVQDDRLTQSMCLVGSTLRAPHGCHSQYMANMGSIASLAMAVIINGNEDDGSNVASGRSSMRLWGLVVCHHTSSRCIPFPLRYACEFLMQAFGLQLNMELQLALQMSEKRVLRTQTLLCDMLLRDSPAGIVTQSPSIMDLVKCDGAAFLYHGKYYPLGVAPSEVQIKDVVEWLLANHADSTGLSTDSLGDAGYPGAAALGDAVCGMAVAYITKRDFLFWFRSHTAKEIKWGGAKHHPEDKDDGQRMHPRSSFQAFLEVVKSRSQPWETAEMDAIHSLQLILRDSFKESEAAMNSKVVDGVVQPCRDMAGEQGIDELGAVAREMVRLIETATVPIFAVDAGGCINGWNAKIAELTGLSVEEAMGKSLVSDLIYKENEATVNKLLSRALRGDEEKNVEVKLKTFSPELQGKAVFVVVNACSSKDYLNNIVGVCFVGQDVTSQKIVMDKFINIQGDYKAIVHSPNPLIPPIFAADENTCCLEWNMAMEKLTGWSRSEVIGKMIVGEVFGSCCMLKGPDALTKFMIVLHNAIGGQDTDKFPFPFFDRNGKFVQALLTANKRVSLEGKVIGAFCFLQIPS

B1: full-length Arabidopsis thaliana PhyB assembled with PΦB (natural protein, UniProt P14713 1-1172, looked up)
chain: T2 sequence (P14713 1-1172)
modifications: phytochromobilin (PΦB) covalently bound to the cysteine of the GAF domain
notes: Phytochrome B (PhyB), Arabidopsis thaliana, full-length 1172-residue polypeptide, from an intron-less PhyB gene designed for recombinant expression; Analysed as Pr; TEV cleavage of the printed tag probably leaves its last G at the N-terminus (surmised); also called FL PhyB; FL

Legend:
PhyB 1–450 fragment = biological target: T1, PhyB 1–450 fragment; assay: assembly in E. coli, zinc-induced fluorescence after SDS-PAGE, UV-Vis absorption; type: binding; settings: covalent; GAF domain cysteine; 25 °C, pH 7.9
full-length (FL) PhyB = biological target: T2, full-length (FL) PhyB; assay: as above; type: binding; settings: covalent; GAF domain cysteine; 25 °C, pH 7.9
[1] = biological target: T3, PhyB 1–624 fragment (PSM); assay: as above; type: binding; settings: covalent; GAF domain cysteine; 25 °C, pH 7.9
[2] = biological target: T5, PhyB 90–624 (NTE truncation) (Arabidopsis thaliana, UniProt P14713); assay: as above; type: binding; settings: covalent; GAF domain cysteine; 25 °C, pH 7.9
T5 construct: PSM residues 90-624; N-terminal 6His-TEV tag cut off; E. coli BL21(DE3); 4OUR is an earlier structure of this fragment

[3] = biological target: T6, PhyB 100–624 (NTE truncation) (Arabidopsis thaliana, UniProt P14713); assay: as above; type: binding; settings: covalent; GAF domain cysteine; 25 °C, pH 7.9
T6 construct: PSM residues 100-624; N-terminal 6His-TEV tag cut off; E. coli BL21(DE3)

[4] = biological target: T7, PhyB 51–624 (NTE truncation) (Arabidopsis thaliana, UniProt P14713); assay: as above; type: binding; settings: covalent; GAF domain cysteine; 25 °C, pH 7.9
T7 construct: PSM residues 51-624; N-terminal 6His-TEV tag cut off; E. coli BL21(DE3)

PhyB 1–908 fragment = biological target: T4, PhyB 1–908 fragment; assay: as above; type: binding; settings: covalent; GAF domain cysteine; 25 °C, pH 7.9
[5] = biological target: the molecule itself; assay: SEC; Superdex 200 HR 10/30, 10 °C, 150 mM KCl, 50 mM HEPES-NaOH pH 7.8, 0.3 mM TCEP; samples as Pr at 0.6 mg/ml; apparent mass from size standards; monomer to dimer

Molecule | assembly in E. coli, zinc-induced fluorescence after SDS-PAGE, UV-Vis absorption (PhyB 1–450 fragment) | assembly in E. coli, zinc-induced fluorescence after SDS-PAGE, UV-Vis absorption (full-length (FL) PhyB) | assembly in E. coli, zinc-induced fluorescence after SDS-PAGE, UV-Vis absorption [1] | assembly in E. coli, zinc-induced fluorescence after SDS-PAGE, UV-Vis absorption [2] | assembly in E. coli, zinc-induced fluorescence after SDS-PAGE, UV-Vis absorption [3] | assembly in E. coli, zinc-induced fluorescence after SDS-PAGE, UV-Vis absorption [4] | assembly in E. coli, zinc-induced fluorescence after SDS-PAGE, UV-Vis absorption (PhyB 1–908 fragment) | stoichiometry N [5]
C/C=C1/C(=C/c2[nH]c(/C=C3N=C(/C=C4\NC(=O)C(CC)=C4C)C(C)=C\3CCC(=O)O)c(CCC(=O)O)c2C)NC(=O)[C@@H]1C [PCB] | the fragment assembled with PCB generated as least some of a ‘Pfr’-like state | recombinant PhyB assembled with PCB with efficiencies equal to that seen for PΦB | – | – | – | – | – | –
C=CC1=C(C)/C(=C/C2=NC(=C\c3[nH]c(/C=C4\NC(=O)[C@H](C)\C4=C/C)c(C)c3CCC(=O)O)/C(CCC(=O)O)=C2C)NC1=O [PΦB] | The truncations were expressed and assembled with PΦB in Escherichia coli | purified chromoproteins were readily obtained with high bilin occupancy and near normal Pr absorption | The truncations were expressed and assembled with PΦB in Escherichia coli | all of the truncations expressed well, efficiently assembled with PΦB, and displayed normal Pr absorption | all of the truncations expressed well, efficiently assembled with PΦB, and displayed normal Pr absorption | all of the truncations expressed well, efficiently assembled with PΦB, and displayed normal Pr absorption | The truncations were expressed and assembled with PΦB in Escherichia coli | –
B1 | – | – | – | – | – | – | – | 2

From article PMC5651913, “Photosensing and Thermosensing by Phytochrome B Require Both Proximal and Distal Allosteric Features within the Dimeric Photoreceptor” (Scientific Reports, 2017)
